{"source": "patent US9226917B2", "about": "“Photodynamic therapy for conditions of the eye” (Valeant Pharmaceuticals International, Inc., priority 2008, dated 2016)", "key": {"[1]": {"test_system": "AMD and other retinal diseases", "settings": "intravitreal injection, published case series; cited from earlier work"}, "[2]": {"test_system": "subfoveal choroidal neovascularization (CNV) due to AMD", "experiment": "RADICAL study: 24-month randomized, controlled trial of vPDT combination regimens versus ranibizumab monotherapy (visual acuity, retreatments, retinal thickness)", "type": "in vivo, human", "protocol": "(§1) The study is a 24-month randomized, controlled trial designed to evaluate 3 combination treatment regimens: (1) very low-fluence vPDT (15 J/cm^2) combined with ranibizumab (0.5 mg) and dexamethasone (0.5 mg); (2) half-fluence vPDT (25 J/cm^2) combined with ranibizumab and dexamethasone; and (3) half-fluence vPDT combined with ranibizumab. These regimens are compared with ranibizumab monotherapy in patients with subfoveal choroidal neovascularization (CNV) due to AMD. Inclusion criteria includes ≧50 years old; naïve to AMD treatment; best-corrected VA (BCVA) letter score of 73-24; subfoveal CNV due to AMD; and lesion size <9 DA. Patients (N=160) are randomly assigned to 1 of the 4 treatment arms at baseline, receive 1 initial treatment, and are to be evaluated for retreatment every month based on novel criteria using OCT and FA. Patients in the ranibizumab monotherapy group receive mandatory dosing at months 1 and 2, and as needed thereafter based on the same retreatment criteria. Patients in the combination therapy groups receive assigned treatment as needed (not more frequently than every 2 months), based on retreatment criteria; if treatment is required in an intervening month, then a ranibizumab injection is given. Study outcomes include efficacy, safety, and number of retreatments.\nAfter their initial randomized study treatment, patients in the combination therapy groups return to the clinic monthly for re-treatment evaluation. Re-treatment criteria are based on optical coherence tomography (OCT) and fluorescein angiography (FA). If OCT central retinal thickness (CRT) is ≧250 μm or is increased >50 μm compared with the lowest previous CRT measurement, then the patient is re-treated.\nCombination re-treatment is not administered more frequently than every 2 months. If re-treatment is found to be needed in an intervening month, the patient receives a ranibizumab injection only. After their initial randomized study treatment, patients in the ranibizumab monotherapy group receive mandatory re-treatment at months 1 and 2, and then re-treatment as needed thereafter based on the criteria described above. In all treatment arms, monthly assessments and potential re-treatments continue through 12 months of the study. Between 12 and 24 months, patients attend the clinic at least once every 3 months, or more frequently at the investigator's discretion.\nBest-corrected visual acuity is assessed by the ETDRS method at screening, on the day of initial treatment (before treatment), at monthly visits through 6 months, and at the 12-, 18-, and 24-month visits. FA is assessed at screening, at the 3- and 12-month visits, and as required according to re-treatment criteria. OCT is assessed to determine retreatment criteria at every visit. Safety, including intraocular pressure, is also evaluated at every visit.\nStudy outcomes include visual acuity, CRT, lesion size, number of re-treatments, and safety. The primary efficacy variables are mean number of re-treatments and mean change from baseline in visual acuity score.\nRandomization occurs on the day of the first treatment to one of the following groups: • Lucentis monotherapy. • Half-fluence Visudyne-Lucentis (V-L) double therapy. • Half-fluence (25 J/cm^2) Visudyne-Lucentis-Dexamethasone (V-L-D) triple therapy. • Very low-fluence (15 J/cm^2) Visudyne-Lucentis-Dexamethasone (V-L-D) triple therapy.\nTreatments occur within 7 days of baseline FA. […]"}, "CNV due to AMD": {"test_system": "CNV due to AMD", "settings": "dosing every 3 months compared to continued monthly dosing, on average, over the following 9 months; cited from earlier work"}, "[3]": {"experiment": "RADICAL study: safety / adverse events", "type": "in vivo, human", "settings": "12 months", "protocol": "as §1, with “Patients in the ranibizumab monotherapy group receive mandatory dosing at months 1 and 2, and as needed thereafter based on the same retreatment criteria. Patients in the combination therapy groups receive assigned treatment as needed (not more frequently than every 2 months), based on retreatment criteria; if treatment is required in an intervening month, then a ranibizumab injection is given. Study outcomes include efficacy, safety, and number of retreatments.” left out\nBest-corrected visual acuity is assessed by the ETDRS method at screening, on the day of initial treatment (before treatment), at monthly visits through 6 months, and at the 12-, 18-, and 24-month visits. FA is assessed at screening, at the 3- and 12-month visits, and as required according to re-treatment criteria. OCT is assessed to determine retreatment criteria at every visit. Safety, including intraocular pressure, is also evaluated at every visit. […]"}}}
{"substance": "bevacizumab [Avastin]", "values": [{"measurement": "mean VA in treated patients", "setting": "[1]", "value": "increase of mean VA"}]}
{"substance": "ranibizumab [Lucentis monotherapy]", "values": [{"measurement": "percentage of patients whose vision improved by 3 lines or more", "setting": "[2]; 12 months", "value": 24, "unit": "%"}, {"measurement": "Mean retreatment rate", "setting": "[2]; ITT, 12 months, Day 0 treatment excluded", "value": 5.4}, {"measurement": "Mean VA improvement from baseline (letters)", "setting": "[2]; ITT, month 12", "value": 6.5, "unit": "letters"}, {"measurement": "Mean VA improvement from baseline (letters)", "setting": "[2]; Per-protocol, 12 months", "value": 6.8, "unit": "letters"}, {"measurement": "Mean retreatment rate", "setting": "[2]; Per-protocol, 12 months", "value": 5.9}, {"measurement": "loss of visual acuity benefit", "setting": "CNV due to AMD", "value": "~5", "unit": "letter"}, {"measurement": "Ocular adverse events considered associated with treatment (share of patients)", "setting": "[3]", "value": "approximately one-fourth"}]}
